PubChem BioAssay (NCI)
≈ marks a conversion by molar mass, not a printed value.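 48-hour exposure; five concentrations; linearly interpolated endpoints. The concentration for 50% growth inhibition is given as GI50. At the TGI there is no net growth.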 Where a SMILES comes first, the peptide text is derived from it.

Experiments:
Assay in all cases: NCI anticancer screen, dose series, 48 h; in the data active = GI50 below about 0.43 µM; inactive = the rest
[1] = tested on: 786-0 renal
[2] = tested on: A498 renal
[3] = tested on: A549 NSCLC
[4] = tested on: ACHN renal
[5] = tested on: BT-549 breast
[6] = tested on: CAKI-1 renal
[7] = tested on: CCRF-CEM leukemia
[8] = tested on: EKVX NSCLC
[9] = tested on: HCC-2998 colon
[10] = tested on: HCT-15 colon
[11] = tested on: HL-60(TB) leukemia
[12] = tested on: HS 578T breast
[13] = tested on: HT29 colon
[14] = tested on: IGROV1 ovarian
[15] = tested on: K-562 leukemia
[16] = tested on: KM12 colon
[17] = tested on: LOX IMVI melanoma
[18] = tested on: M14 melanoma
[19] = tested on: MCF7 breast
[20] = tested on: MOLT-4 leukemia
[21] = tested on: NCI-H226 lung
[22] = tested on: NCI-H23 lung
[23] = tested on: NCI-H460 lung
[24] = tested on: NCI/ADR-RES ovarian
[25] = tested on: OVCAR-3 ovarian
[26] = tested on: OVCAR-4 ovarian
[27] = tested on: OVCAR-5 ovarian
[28] = tested on: OVCAR-8 ovarian
[29] = tested on: PC-3 prostate
[30] = tested on: RPMI-8226 leukemia
[31] = tested on: RXF 393 renal
[32] = tested on: SF-268 CNS
[33] = tested on: SF-539 CNS
[34] = tested on: SK-MEL-28 melanoma
[35] = tested on: SK-MEL-5 melanoma
[36] = tested on: SK-OV-3 ovarian
[37] = tested on: SN12C renal
[38] = tested on: SNB-19 CNS
[39] = tested on: SNB-75 CNS
[40] = tested on: SR leukemia
[41] = tested on: SW-620 colon
[42] = tested on: TK-10 renal
[43] = tested on: U251 CNS
[44] = tested on: UACC-62 melanoma
[45] = tested on: UO-31 renal
[46] = tested on: COLO 205 colon
[47] = tested on: DU-145 prostate
[48] = tested on: HCT-116 colon
[49] = tested on: HOP-62 NSCLC
[50] = tested on: HOP-92 NSCLC
[51] = tested on: MALME-3M melanoma
[52] = tested on: MDA-MB-231 breast
[53] = tested on: MDA-MB-435
[54] = tested on: NCI-H522 lung
[55] = tested on: SF-295 CNS
[56] = tested on: SK-MEL-2 melanoma
[57] = tested on: T-47D breast
[58] = tested on: UACC-257 melanoma

O=C1/C(=C/c2cccc3ccccc23)Cc2ccccc21
> 100 µM: TGI [2] | TGI [3] | TGI [4] | TGI [6] | TGI [7] | TGI [8] | TGI [9] | TGI [10] | TGI [11] | TGI [13] | TGI [14] | TGI [15] | TGI [16] | TGI [17] | TGI [18] | TGI [20] | TGI [23] | TGI [24] | TGI [27] | TGI [28] | TGI [30] | TGI [34] | TGI [35] | TGI [37] | TGI [39] | TGI [40] | TGI [41] | TGI [42] | TGI [44] | TGI [45]
47.2 µM: TGI [36]
65.7 µM: TGI [32]
65.8 µM: TGI [22]
91.3 µM: TGI [25]
73.3 µM: TGI [12]
39.2 µM: TGI [31]
29.9 µM: TGI [5]
54.3 µM: TGI [29]
38.9 µM: TGI [19]
53 µM: TGI [26]
64 µM: TGI [38]
52 µM: TGI [43]
48.3 µM: TGI [1]
49.6 µM: TGI [21]
79.4 µM: TGI [33]

CC(C)(C)C1=NN=C2c3ccccc3C(=O)C21 (stereo not given)
> 100 µM: TGI [1] | TGI [3] | TGI [4] | TGI [6] | TGI [7] | TGI [46] | TGI [47] | TGI [8] | TGI [9] | TGI [48] | TGI [10] | TGI [11] | TGI [49] | TGI [13] | TGI [14] | TGI [15] | TGI [16] | TGI [17] | TGI [18] | TGI [51] | TGI [19] | TGI [52] | TGI [53] | TGI [21] | TGI [22] | TGI [23] | TGI [54] | TGI [24] | TGI [25] | TGI [26] | TGI [27] | TGI [28] | TGI [29] | TGI [30] | TGI [31] | TGI [32] | TGI [55] | TGI [33] | TGI [56] | TGI [34] | TGI [37] | TGI [38] | TGI [39] | TGI [41] | TGI [57] | TGI [42] | TGI [43] | TGI [58] | TGI [44] | TGI [45]
85 µM: TGI [20]
83 µM: TGI [40]
54.3 µM: TGI [35]
82.1 µM: TGI [12]
99.5 µM: TGI [2]
63.7 µM: TGI [50]

CC(=O)NC(C(=O)N1CCCC1C(=O)O)C(C)C (stereo not drawn) (Ac-Val-Pro-OH; configuration not given here)
72.4 µg/mL: TGI [44]
inactive: GI50 [39] 0.032 µg/mL (≈ 0.125 µM) | GI50 [44] 22.4 µg/mL (≈ 87.5 µM)
66.7 µg/mL: TGI [39]
